Data taken from patent US20090169540A1, “Use Of An Antagonist Of Epac For Treating Human Cardiac Hypertrophy” (priority 2005, published 2009).
Like-named read-outs stand apart in the source and are kept apart here.

Columns and labels:
[1] = system: neonatal rat ventricular myocytes; assay: [3H]-leucine incorporation (protein synthesis), neonatal cardiomyocytes; assay type: cell-based; conditions: 8-CPT 1 μM, PE 1 μM or adenovirus
[2] = system: neonatal rat ventricular myocytes; assay: Cell surface area by computer-assisted planimetry, neonatal cardiomyocytes; assay type: cell-based; conditions: for Cell surface area: 8-CPT 1 μM or PE 1 μM or adenovirus, compared to control Ad.GFP
Rac [3] = assay: Rac activation assay (Rac-GTP pull-down), primary rat ventricular cardiomyocytes; assay type: cell-based
ANF promoter (ANF-Luc) = assay: ANF-Luc reporter gene assay in neonatal cardiomyocytes; assay type: cell-based, rat; conditions: 8-CPT 1 μM, compared to control cells
Method: FIGS. 2A, 2C and 2D: Neonatal cardiomycoytes were transfected with ANF-Luc (FIG. 2A), SkM-α-actin-Luc (FIG. 2C) or c-fos-SRE-Luc (FIG. 2D) and EpacWT, RacG12V or the empty vector (mock) as control and treated or not with 8-CPT (1 μM). Two days after transfection, cells were assayed for luciferase activity. Results are expressed as percentage activation of control. Results are means±S.E.M. for 3 independent experiments performed in triplicates.
In FIGS. 8A, 8B and 8C, cardiomyocytes infected with Ad.GFP (control), Ad.RacS17N, Ad.EpacWT, or Ad.EpacWT and Ad.RacS17N were transfected with NFAT-Luc, MEF2-Luc or ANF-Luc. Two days after, Luc activity was determined. Luc activity was normalized to control for each experiment, and were expressed as means±S.E.M of at least 3 separate experiments performed in triplicate
The plasmid constructs were generously provided by the following: a −3003 bp fragment of the rat ANF promoter fused to the luciferase reporter gene (ANF-Luc) by Dr. K. Knowlton, Luciferase reporter genes linked to promoters for skeletal muscle α-actin (SkM-α-actin-Luc) and serum response element-regulated c-fos (c-fos-SRE-Luc) by Dr. M. D. Schneider, Epac1 plasmid constructs by Dr. J. Bos. […]

Rac [4] = assay: Rac activation assay (Rac-GTP pull-down), HL-1 atrial cells; assay type: cell-based, mouse
Method: Rac activation was determined as above. […] Rac-GTP samples and total lysates were separated on SDS-PAGE gels and transferred onto a polyvinylidene difluoride (PVDF) membrane (Amersham Pharmacia Biotech).

[5] = system: neonatal rat ventricular myocytes; assay type: cell-based
[6] = system: neonatal rat ventricular myocytes; assay: Sarcomeric / cytoskeletal organization by phalloidin staining, neonatal cardiomyocytes; assay type: cell-based; conditions: 48 h; 8-CPT (1 mM) and PE (1 mM) as printed, in Ad.GFP cells; vs Ad.GFP alone
[7] = cited from earlier work
MEF2 (MEF2-Luc) = assay: MEF2-Luc transcriptional activity in cardiomyocytes; assay type: cell-based, rat; conditions: cells infected with Ad.EpacWT or Ad.Epac-DcAMP; CsA 0.5 μM, KN-93 1 μM, or co-infection

CO[C@@H]1[C@@H]2OP(=O)(O)OC[C@H]2O[C@H]1n1c(Sc2ccc(Cl)cc2)nc2c(N)ncnc21 [8-CPT, 8-(4-chloro-phenylthio)-2′-O-methyladenosine-3′-5′cyclic monophosphate]
Protein synthesis ([3H]-leucine uptake) [1]: approximate two fold increase
Cell surface area ([2]; 2 days): two fold increase
Effect of Ad.EpacWT on cell surface area in the presence of 8-CPT ([2]; Ad.EpacWT-infected cells plus 8-CPT 1 μM): not further increased
Rac activation in cells infected with Ad.EpacWT (Rac [3]; Ad.EpacWT-infected cells treated with 8-CPT 1 μM for 10 min): further increased
Rac activation (Rac-GTP) (Rac [3]; activation of endogenous Epac, 8-CPT 1 μM, 10 min, rat cardiac myocytes): increased Rac activation
Activation of the ANF-Luc reporter gene (ANF promoter (ANF-Luc)): three fold activation
Amount of Rac-GTP / Rac activation (Rac [4]; HL-1 adult mouse atrial cells, 100 μM, 10 min exposure): strong increase in the amount of Rac-GTP
Treatment time upon which 8-CPT-induced Rac activation was detected (Rac [4]; HL-1 cells, 8-CPT 10 μM time course (FIG. 1C)): 5 min
Frequency of spontaneous Ca2+ transients [5]: 0.51±0.04 Hz
Frequency of spontaneous Ca2+ transients ([5]; 8-CPT 100 nM, physiological external [Ca2+], n=13): 0.40±0.05 Hz
Ca2+ spike frequency ([5]; 8-CPT 10 μM in the presence of 20 mM external Cs+, n=8): 1.25±0.35 Hz
Effect on Ca2+ transients ([5]; 8-CPT 10 μM, absence of external Ca2+): had no effect
Amplitude of Ca2+ spikes ([5]; 8-CPT 10 μM, physiological external [Ca2+]): without changing the amplitude of the spikes
Ca2+ spike frequency ([5]; 8-CPT 100 μM, absence of external Ca2+, n=4): 0.12±0.02 Hz
Ca2+ spike frequency ([5]; 8-CPT 100 μM, absence of external Ca2+, presence of H89 1 μM, n=8): 0.23±0.049 Hz
Cytoskeletal (F-actin) / sarcomeric organization [6]: apparent increase of the F-actin meshwork and an heavily striated appearance

CCCCc1oc2ccccc2c1C(=O)c1cc(I)c(OCCN(CC)CC)c(I)c1 [Amiodarone]
Hypothyroidism incidence ([7]; as high as, in some series): 8%-19%
Hyperthyroidism incidence ([7]; human, in vivo): about 2%
Liver function test abnormalities incidence ([7]; human, in vivo): 4%-9%
Other serious side effect ([7]; human, in vivo): optic neuropathy, which can lead to blindness
Proarrhythmia incidence ([7]; human, in vivo): 2%-5%
Hypothyroidism incidence ([7]; in some cases): 2%-4%

O=S(=O)(NCCNC/C=C/c1ccc(Br)cc1)c1cccc2cnccc12 [H89]
8-CPT-induced increase in Ca2+ transients frequency ([5]; H89 1 μM, 8-CPT 100 μM, absence of external Ca2+): failed to block

COc1ccc(S(=O)(=O)N(CCO)c2ccccc2CN(C)C/C=C/c2ccc(Cl)cc2)cc1 [KN-93]
Ad.Epac-DcAMP-induced increase in cell surface area ([2]; KN-93 1 μM, 2 days): significantly decreased
Epac-induced MEF2 transcriptional (luciferase) activity (MEF2 (MEF2-Luc)): completely blocked

CNC[C@H](O)c1cccc(O)c1 [PE, phenylephrine]
Protein synthesis ([3H]-leucine uptake) [1]: approximate two fold increase
Cell surface area ([2]; 2 days): Identical results
Cytoskeletal (F-actin) / sarcomeric organization [6]: comparable

C[C@H](CCC(=O)O)C[C@H](C)C[C@H](C)C(=O)/C=C(\O)[C@H](C)C[C@H](C)C/C=C/[C@@H](C)[C@@H](O)[C@@H](C)[C@@H](O)C[C@@H]1CC[C@@](C)([C@H]2CC[C@@](C)([C@@H](C)O)O2)O1 [ionomycin]
Effect on Rac activation relative to positive control PE (1 μM) (Rac [3]; ionomycin 1 μM vs PE 1 μM 15 min): as potent as PE
Rac activation (Rac [3]; ionomycin 1 μM, different times of incubation): increased Rac activation in a time dependent manner
